Measured values reported in patent publication US20230136717A1, “EPLIN AS A BIOMARKER FOR CANCER” (Turun yliopisto, priority 2020, published 2023).

Legend:
HNSCC cell lines = test: Sensitivity of HNSCC cell lines to EGFR-TKi after silencing EPLIN; type: cell-based; settings: siRNA silencing of EPLIN; FIG. 6C
HNSCC patient samples = test: Cancer drug sensitivity testing on nonselected HNSCC patient samples (Misvik Oy); type: cell-based; settings: for drug sensitivity: EPLIN positive HNSCC, more than 160 cancer drugs tested, all results not shown
From the text: Our proof-of-concept study featured testing the sensitivity of more than 160 cancer drugs on nonselected HNSCC patient samples using an internationally validated method (Misvik Oy, Turku, Finland).

Structure (SMILES)	sensitivity of HNSCC cells to the drug on silencing EPLIN expression (HNSCC cell lines)	drug sensitivity (HNSCC patient samples)	effect relative to the other tested EGFR-TKis (HNSCC cell lines)	function as precision therapy (HNSCC patient samples; several EPLIN positive HNSCC patients, FIG. 7A)
CNC(=O)CN1CCC(Oc2cc3c(Nc4cccc(Cl)c4F)ncnc3cc2OC)CC1 [AZD8931]	decreases sensitivity	–	–	–
C=CC(=O)Nc1cc(Nc2nccc(-c3cn(C)c4ccccc34)n2)c(OC)cc1N(C)CCN(C)C [AZD9291]	decreases sensitivity	–	–	–
C=CC(=O)Nc1cc2c(Nc3ccc(F)c(Cl)c3)ncnc2cc1OCCCN1CCOCC1 [Canertinib]	–	highest sensitivity	–	–
C#Cc1cccc(Nc2ncnc3cc(OCCOC)c(OCCOC)cc23)c1 [Erlotinib]	decreases sensitivity	highest sensitivity	best result	proven to function as precision therapy
COc1cc2ncnc(Nc3ccc(F)c(Cl)c3)c2cc1OCCCN1CCOCC1 [Gefitinib]	–	highest sensitivity	–	–
CCOc1cc2ncc(C#N)c(Nc3ccc(OCc4ccccn4)c(Cl)c3)c2cc1NC(=O)/C=C/CN(C)C [Neratinib]	decreases sensitivity	–	–	–
